Laboratory results taken from patent US20250352508A1, “PREVENTION AND TREATMENT OF POST-ACUTE INFECTION SYNDROMES” (InflammX Therapeutics, Inc., priority 2024, published 2025).
Read-outs that look alike come from different tables or passages of the source. Where a SMILES comes first, the peptide text is derived from it.

Key:
NLRP3 inflammasome = NLRP3 inflammasome (Homo sapiens, UniProt Q96P20); conditions: cited from earlier work
NLRC4 inflammasome = conditions: cited from earlier work
AIM2 inflammasome = conditions: cited from earlier work
Cx43 hemichannel = conditions: glioma cells; read-out: IC50 (half maximal inhibitory concentration) for the inhibition of ATP release; cited from earlier work
gap junction = gap junction (Homo sapiens, UniProt P17302); conditions: cited from earlier work
Panx1 channel = Panx1 channel (Homo sapiens, UniProt Q96RD7); conditions: cited from earlier work
[1] = Pharmacokinetics of tonabersat after single and repeat oral dosing, 40 and 80 mg once daily; type: in vivo, human; conditions: for half-life: human, plasma
From the text: In some embodiments, a connexin hemichannel modulator (e.g., a connexin 43 hemichannel modulator) is provided in an amount to achieve and/or to maintain a steady state amount over a desired period of time, including some or part of a dosing regimen for use in addressing one or more signs or symptom of a post-acute infection syndrome, disorder, disease or condition. In some embodiments, the connexin hemichannel modulator (e.g., a connexin 43 hemichannel modulator) is a compound according to Formula I. In some embodiments, the connexin hemichannel modulator (e.g., a connexin 43 hemichannel modulator) is a compound according to Formula II.

[2] = Pharmacokinetics of tonabersat after single and multiple dosing, 240 to 400 mg, fasted and fed (MAD and DDI parts); type: in vivo, human; conditions: for AUC(0-inf) / half-life / Tmax: human, in vivo, oral; for AUC(0-inf): 320 mg; for half-life: read-out: geometric mean t1/2; for Tmax: read-out: median tmax
From the text: In some embodiments, a connexin hemichannel modulator (e.g., a connexin 43 hemichannel modulator) is provided in an amount to achieve and/or to maintain a steady state amount over a desired period of time, including some or part of a dosing regimen for use in addressing one or more signs or symptom of a post-acute infection syndrome, disorder, disease or condition. In some embodiments, the connexin hemichannel modulator (e.g., a connexin 43 hemichannel modulator) is a compound according to Formula I. In some embodiments, the connexin hemichannel modulator (e.g., a connexin 43 hemichannel modulator) is a compound according to Formula II. […] There was no evidence of time- or dose-related changes in systemic exposure of tonabersat. For a drug to show no change in its pharmacokinetic behavior on chronic dosing, the steady-state accumulation ratio (Rs) should equal unity. […] After both single and multiple dosing, Cmax and AUC increased with increasing dose in a dose-proportional manner across the dose range studied. […] Therefore, total exposure (extent of absorption) was not affected by food administration, whereas the rate of drug absorption was increased in the presence of food. […] The half-life was not affected by fed conditions.

gap junctions = gap junctions (Homo sapiens, UniProt P08034); parameters: dose or concentration left out as unconfirmed; conditions: cited from earlier work
Chain of gap junctions (P08034 whole entry): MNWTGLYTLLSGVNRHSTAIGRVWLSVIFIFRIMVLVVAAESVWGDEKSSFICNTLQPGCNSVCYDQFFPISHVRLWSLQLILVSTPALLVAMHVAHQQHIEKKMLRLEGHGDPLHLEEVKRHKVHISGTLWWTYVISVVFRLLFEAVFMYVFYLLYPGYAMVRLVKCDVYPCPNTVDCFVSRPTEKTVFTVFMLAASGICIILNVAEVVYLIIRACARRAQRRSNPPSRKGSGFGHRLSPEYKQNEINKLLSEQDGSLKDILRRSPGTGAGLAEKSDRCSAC

Chain of gap junction (P17302 whole entry): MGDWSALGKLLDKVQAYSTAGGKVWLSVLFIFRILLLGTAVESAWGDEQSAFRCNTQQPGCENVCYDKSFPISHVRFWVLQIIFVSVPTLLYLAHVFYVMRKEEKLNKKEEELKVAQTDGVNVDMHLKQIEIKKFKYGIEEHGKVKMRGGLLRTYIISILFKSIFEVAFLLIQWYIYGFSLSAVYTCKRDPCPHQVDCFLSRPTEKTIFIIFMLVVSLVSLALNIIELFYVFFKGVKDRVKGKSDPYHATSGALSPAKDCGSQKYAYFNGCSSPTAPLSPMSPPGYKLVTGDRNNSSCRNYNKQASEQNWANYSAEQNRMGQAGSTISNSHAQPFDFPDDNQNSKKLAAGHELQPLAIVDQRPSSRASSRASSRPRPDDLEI
Chain of NLRP3 inflammasome (Q96P20 whole entry): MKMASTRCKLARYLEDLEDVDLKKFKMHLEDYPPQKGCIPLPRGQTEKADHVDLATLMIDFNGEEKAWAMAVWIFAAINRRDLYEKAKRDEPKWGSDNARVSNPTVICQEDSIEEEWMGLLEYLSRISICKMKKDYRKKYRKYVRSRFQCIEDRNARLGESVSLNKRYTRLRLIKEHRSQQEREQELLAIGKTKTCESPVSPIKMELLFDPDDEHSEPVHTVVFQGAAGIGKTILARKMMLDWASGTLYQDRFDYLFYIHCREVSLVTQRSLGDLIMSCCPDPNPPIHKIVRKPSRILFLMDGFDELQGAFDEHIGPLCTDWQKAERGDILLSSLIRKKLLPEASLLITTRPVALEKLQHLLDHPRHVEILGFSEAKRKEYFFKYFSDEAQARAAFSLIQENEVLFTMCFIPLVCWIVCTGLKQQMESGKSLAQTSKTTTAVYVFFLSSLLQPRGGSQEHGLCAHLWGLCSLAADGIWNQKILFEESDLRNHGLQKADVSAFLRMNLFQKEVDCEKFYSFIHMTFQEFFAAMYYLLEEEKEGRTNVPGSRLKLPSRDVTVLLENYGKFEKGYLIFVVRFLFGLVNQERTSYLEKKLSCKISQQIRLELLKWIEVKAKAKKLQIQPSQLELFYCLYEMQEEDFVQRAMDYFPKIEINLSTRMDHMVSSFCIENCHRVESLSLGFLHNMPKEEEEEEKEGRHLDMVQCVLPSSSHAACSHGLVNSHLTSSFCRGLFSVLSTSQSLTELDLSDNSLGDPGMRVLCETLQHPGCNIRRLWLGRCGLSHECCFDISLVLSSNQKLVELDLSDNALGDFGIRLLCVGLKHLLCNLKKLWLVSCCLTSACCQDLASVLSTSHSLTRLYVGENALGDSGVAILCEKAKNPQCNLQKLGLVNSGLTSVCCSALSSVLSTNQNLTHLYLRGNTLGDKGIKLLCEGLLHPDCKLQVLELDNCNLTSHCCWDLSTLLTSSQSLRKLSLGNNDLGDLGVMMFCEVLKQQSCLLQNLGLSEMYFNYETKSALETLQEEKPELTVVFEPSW
Chain of Panx1 channel (Q96RD7 whole entry): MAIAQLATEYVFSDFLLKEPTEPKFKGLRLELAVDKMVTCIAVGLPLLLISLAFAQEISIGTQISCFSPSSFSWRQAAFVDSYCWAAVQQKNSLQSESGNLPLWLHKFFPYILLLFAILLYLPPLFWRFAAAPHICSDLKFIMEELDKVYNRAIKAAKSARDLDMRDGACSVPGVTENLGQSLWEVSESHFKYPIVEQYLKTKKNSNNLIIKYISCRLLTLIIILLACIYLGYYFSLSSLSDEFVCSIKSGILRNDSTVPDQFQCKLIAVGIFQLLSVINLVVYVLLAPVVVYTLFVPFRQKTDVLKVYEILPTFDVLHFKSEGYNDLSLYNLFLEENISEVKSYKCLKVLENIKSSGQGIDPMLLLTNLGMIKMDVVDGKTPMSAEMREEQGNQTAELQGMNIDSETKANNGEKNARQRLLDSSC

Molecule: CC(C)C[C@H](NC(=O)[C@H](Cc1ccccc1)NC(=O)c1c(F)cccc1F)B(O)O [NIC-102, ((R)-1-((S)-2-(2,6-difluorobenzamido)-3-phenylpropanamido)-3-methylbutyl)boronic acid]
- effect on NLRP3 inflammasome activation (NLRP3 inflammasome): specifically prevents
- effect on NLRC4 inflammasome (NLRC4 inflammasome): no effect
- effect on AIM2 inflammasome (AIM2 inflammasome): no effect

Molecule: CC[C@H](C)[C@H](NC(=O)[C@H](CCC(=O)O)NC(=O)[C@@H](NC(=O)[C@H](CCC(N)=O)NC(=O)[C@H](CCCCN)NC(=O)[C@H](CCCNC(=N)N)NC(=O)[C@H](CCCNC(=N)N)NC(=O)[C@H](CCCNC(=N)N)NC(=O)[C@H](CCC(N)=O)NC(=O)[C@H](CCCNC(=N)N)NC(=O)[C@H](CCCNC(=N)N)NC(=O)[C@H](CCCCN)NC(=O)[C@H](CCCCN)NC(=O)[C@H](CCCNC(=N)N)NC(=O)CNC(=O)[C@@H](N)Cc1ccc(O)cc1)[C@@H](C)CC)C(=O)N[C@@H](CCCCN)C(=O)N[C@@H](CCCCN)C(=O)N[C@@H](Cc1ccccc1)C(=O)N[C@@H](CCCCN)C(=O)O [TAT-^43Gap19] (H-YGRKKRRQRRRKQIEIKKFK-OH; N-terminus and C-terminus assumed)
- IC50 (Cx43 hemichannel): 7 µM

Molecule: CC[C@H](C)[C@H](NC(=O)[C@H](CCC(=O)O)NC(=O)[C@@H](NC(=O)[C@H](CCC(N)=O)NC(=O)[C@@H](N)CCCCN)[C@@H](C)CC)C(=O)N[C@@H](CCCCN)C(=O)N[C@@H](CCCCN)C(=O)N[C@@H](Cc1ccccc1)C(=O)N[C@@H](CCCCN)C(=O)O [^43Gap19] (H-KQIEIKKFK-OH; N-terminus and C-terminus assumed)
- IC50 (Cx43 hemichannel): 47 µM
- effect on gap junction activity (selectivity) (gap junction): does not affect
- effect on Panx1 channel activity (selectivity) (Panx1 channel): does not affect

Molecule: CC(=O)c1ccc2c(c1)[C@H](NC(=O)c1ccc(F)c(Cl)c1)[C@H](O)C(C)(C)O2 [tonabersat, N-[(3S,4S)-6-acetyl-3-hydroxy-2,2-dimethyl-3,4-dihydrochromen-4-yl]-3-chloro-4-fluorobenzamide]
- dose proportionality of pharmacokinetics (dose-normalized Cmax and AUC(0-t)) ([1]; between 40 and 80 mg once daily, single or multiple doses): approximately dose proportional
- half-life ([1]; oral, read-out: elimination half-life): 24 to 36 h
- half-life ([1]; oral, read-out: mean half-life (converted)): ~25 h
- half-life ([1]; po, single and repeat oral dosing, read-out: terminal elimination phase T1/2): 24 to 33 h
- time tonabersat generally quantifiable in the plasma post-dose ([1]; single and repeat oral dosing): at least 96 hours
- time- or dose-related changes in systemic exposure ([1]; single and repeat oral dosing): no evidence
- half-life, effect of fed conditions ([2]; fed vs fasted): not affected
- rate of drug absorption in the presence of food ([2]; fed vs fasted): increased
- total exposure (extent of absorption), effect of food administration ([2]; fed vs fasted): not affected
- AUC(0-inf) ([2]; single dose 320 mg fasted): 285 µg·h/mL
- AUC(0-inf) ([2]; single dose 320 mg fed): 296 µg·h/mL
- half-life ([2]; after multiple dosing, Day 14): 37.5 to 41.6 h
- half-life ([2]; after single dosing): 28.9 to 37.8 h
- Tmax ([2]; single dose 240 mg, fasted): 16 h
- Tmax ([2]; single dose 320 mg, fasted): 10.5 h
- Tmax ([2]; single or multiple dosing 240 mg to 400 mg, fed (light, medium or fed)): 3 to 4 h
- accumulation of Cmax and AUC ([2]; multiple dosing 13 to 14 consecutive days, Days 13 or 14 compared to Day 1): approximately 3 fold
- Cmax and AUC increase with increasing dose ([2]; single and multiple dosing, across the dose range studied): dose-proportional

Molecule: GHGDPLHLEEVKC [^32Gap24]
- effect on gap junctions (gap junctions): without affecting
